Patent publication US20210154281A1, “CELL-BASED CANCER VACCINES AND CANCER THERAPIES” (Massachusetts Institute of Technology, priority 2019, published 2021)
Like-named read-outs stand apart in the source and are kept apart here.

Key:
Type in all cases: cell-based, mouse
[1] = tested on: B16F10 melanoma tumor cell line; experiment: Cell death by AnnexinV/DAPI staining 48 hours after drug treatment; details: for cell death by DAPI and Annexin V staining: at the concentrations used; for cytotoxicity at 0.05 µM / viability at 0.05 µM: 50 nM; for cytotoxicity at 0.25 µM / viability at 0.25 µM: 250 nM
Protocol: For assessment of cell death, floating and attached cells were harvested after 48 hours of treatment with the indicated chemotherapeutic drugs. Attached cells were detached using 5 mM EDTA in PBS. The recovered cells were centrifuged at 250×g for 5 minutes, washed once in PBS containing 0.9 mM Ca2+ and 0.5 mM Mg2+ and then stained with AnnV-FITC for 15 minutes in Annexin binding buffer at room temperature according to the manufacturer's protocol (Biolegend). Cells were co-stained with DAPI at a final concentration of 1 μg/ml for 2 minutes in Annexin binding buffer, brought to a final volume of 500 ul using PBS containing 0.9 mM Ca2^+ and 0.5 mM Mg2^+ and analyzed by flow cytometry.
To identify how DNA-damaging chemotherapy could be optimally used to enhance anti-tumor immune function, cytotoxicity assays were performed using the B16F10 melanoma tumor cell line expressing ovalbumin (B16-Ova). Cells were treated with clinically used chemotherapeutic agents followed by assaying for cell death by DAPI and Annexin V staining 48 hours later.

[2] = Cell viability (survival) assay with CellTiter-Glo, 48 hours; details: mouse, 48 hours, normalized to DMSO-treated control cells; for viability at 48 h, 0.05 uM: .05 uM
Protocol: (§1) For assays of survival, 15,000 cells were plated per well in a 96-well plate in 100 μl media with 5 replicates per condition. Wells along the four edges of the plate were not used. Following cell attachment, the indicated drugs were added in an equal volume of media, and incubated for an additional 48 hours. The media was then removed and replaced with 100 ul of fresh media at room temperature. Following a 30 minute incubation at room temperature, 50 μl of CellTiter-Glo reagent was added, followed by 2 minutes of gentle mixing. The plate was incubated at room temperature for an additional 10 minutes. 100 μl of supernatant was transferred to a 96-well white opaque plate and luminescence was read on a Tecan microplate reader. Values were normalized to those of DMSO-treated control cells.

B16-Ova cells = experiment: In vitro cross presentation assay: drug-treated B16-Ova cells, BMDC and OT-1 CD8+ T-cells, IFN-γ+ T-cells by flow cytometry; parameters: reduction of the percentage of IFNg+ T-cells by siRNA knockdown of calreticulin / reduction of T-cell IFN-γ responses / frequency of IFN-γ+ T-cells: concentration or dose not given beside the values
Protocol: B16-Ova or MC-38 Ova cells were treated with various doses of chemotherapeutic drugs for 24 h followed by extensive washing in IMDM (10% FBS, P/S). Subsequently 1×10^6 treated cells were co-cultured with 2.5×10^5 BMDC per well of a 24-well plate for each condition tested. After 24 hours of co-culture, supernatants were removed from each well and the BMDC washed 2-3 times in T-cell media (RPMI containing 10% FBS, 20 mM HEPES, 1 mM sodium pyruvate, 55 uM b-mercaptoethanol, 2 mM L-glutamine, nonessential amino acids and antibiotics). CD8+OT-I T-cells isolated from spleens of OT-I mice were then co-cultured with the BMDC at 125,000 T-cells per well to achieve an effector to target ratio of 0.5. Where indicated, BMDC and/or T-cells were also exposed to chemotherapy drugs. After a 12-15 h incubation, IFN-g producing T-cells were identified and quantified by intra-cellular cytokine staining and flow cytometry using a BD LSR II or Fortessa flow cytometer. Cells were first gated for CD3 expression, then re-gated for CD8 and IFNg expression.
An experimental system was developed to assess dendritic cell-mediated T-cell priming using the B16-Ova cells, in combination with primary bone-marrow derived dendritic cells (BMDC) and OT-I CD8+ T-cells expressing a TCR transgene that specifically recognizes the Ova-derived peptide […] (SEQ ID NO:1) in the context of H2-Kb (OT-1) (Clarke, et al., Immunol Cell Biol., 78(2):110-7 (2000); Hogquist, et al., Cell, 76(1):17-27 (1994)). […] The treated B16-Ova cells/BMDC co-culture was then incubated with purified CD8+ T-cells obtained from the spleens of OT-1 mice, and the appearance of IFNg+CD8 T-cells was measured 12-15 hours later by intracellular staining and subsequent quantification using flow cytometry.

[3] = tested on: B16F10 melanoma tumor cell line; experiment: Cell viability (survival) assay with CellTiter-Glo, 48 hours; details: for growth arrest: at the concentrations used; for Cell viability (%) MEAN: 48 hours, normalized to DMSO-treated control cells
Protocol: as §1

[4] = co-treatment of B16-Ova cells with etoposide
[5] = co-treatment of B16-Ova cells with mitoxantrone
[6] = Mus musculus, B16-F10, 48 h, read-out: AnnV+DAPI+ (%) Mean
[7] = Mus musculus, B16-F10, 48 h, read-out: AnnV+DAPI− (%) Mean
[8] = Mus musculus, B16-F10, 48 h, read-out: AnnV−DAPI+ (%) Mean
[9] = Mus musculus, B16-F10, 48 h, read-out: AnnV−DAPI− (%) Mean
[10] = Mus musculus, B16-F10, 48 hours, read-out: AnnV+DAPI+ (%) Mean
[11] = Mus musculus, B16-F10, 48 hours, read-out: AnnV+DAPI− (%) Mean
[12] = Mus musculus, B16-F10, 48 hours, read-out: AnnV−DAPI+ (%) Mean
[13] = Mus musculus, B16-F10, 48 hours, read-out: AnnV−DAPI− (%) Mean

O=c1[nH]cc(F)c(=O)[nH]1 [5-FU, 5-fluorouracil]
cell death by DAPI and Annexin V staining ([1]; 48 hours): caused varying extents of apoptotic and non-apoptotic cell death | cytotoxicity at 10 µM ([1]; Mus musculus, B16-F10, 10 uM, 48 hours, read-out: AnnV+DAPI+ (%) Mean): 5.29% | cytotoxicity at 10 µM ([1]; Mus musculus, B16-F10, 10 uM, 48 hours, read-out: AnnV+DAPI− (%) Mean): 9.5% | cytotoxicity at 10 µM ([1]; Mus musculus, B16-F10, 10 uM, 48 hours, read-out: AnnV−DAPI+ (%) Mean): 1.23% | viability at 10 µM ([1]; Mus musculus, B16-F10, 10 uM, 48 hours, read-out: AnnV−DAPI− (%) Mean): 84% | cytotoxicity at 50 µM ([1]; Mus musculus, B16-F10, 50 uM, 48 hours, read-out: AnnV+DAPI+ (%) Mean): 6.78% | cytotoxicity at 50 µM ([1]; Mus musculus, B16-F10, 50 uM, 48 hours, read-out: AnnV+DAPI− (%) Mean): 28.1% | cytotoxicity at 50 µM ([1]; Mus musculus, B16-F10, 50 uM, 48 hours, read-out: AnnV−DAPI+ (%) Mean): 1.33% | viability at 50 µM ([1]; Mus musculus, B16-F10, 50 uM, 48 hours, read-out: AnnV−DAPI− (%) Mean): 63.9% | viability at 48 h, 10 µM ([2]; B16F10 melanoma tumor cells, 10 uM): 49% | viability at 48 h, 50 µM ([2]; B16F10 melanoma tumor cells, 50 uM): 42.8%

CC(C)(C)c1ccc(S(=O)(=O)/C=C/C#N)cc1 [Bay11-7085]
BMDC-mediated T-cell priming (B16-Ova cells; [4]): inhibits BMDC-mediated T-cell priming | reduction of T-cell IFN-γ responses / frequency of IFN-γ+ T-cells (B16-Ova cells; [4]): > 90% | reduction of T-cell IFN-γ responses / frequency of IFN-γ+ T-cells (B16-Ova cells; [5]): > 50%

O=P1(N(CCCl)CCCl)NCCCO1 (stereo not shown) [CPM, cyclophosphamide]
cell death by DAPI and Annexin V staining ([1]; 48 hours): did not induce substantial amounts of cell death | cytotoxicity at 40 µM [1, 6]: 7.7% | cytotoxicity at 200 µM [1, 6]: 11% | cytotoxicity at 40 µM [1, 7]: 1.44% | cytotoxicity at 200 µM [1, 7]: 1.09% | cytotoxicity at 40 µM [1, 8]: 0.82% | cytotoxicity at 200 µM [1, 8]: 0.88% | viability at 40 µM [1, 9]: 90% | viability at 200 µM [1, 9]: 87% | viability at 48 h, 40 µM ([2]; 40 uM): 98.5% | viability at 48 h, 200 µM ([2]; 200 uM): 101%

CC[C@@]1(O)C(=O)OCc2c1cc1n(c2=O)Cc2cc3ccccc3nc2-1 [CPT, camptothecin]
cell death by DAPI and Annexin V staining ([1]; 48 hours): did not induce substantial amounts of cell death | cytotoxicity at 0.05 µM [1, 10]: 7.03% | cytotoxicity at 0.05 µM [1, 11]: 1.26% | cytotoxicity at 0.05 µM [1, 12]: 1.35% | viability at 0.05 µM [1, 13]: 90.4% | cytotoxicity at 0.25 µM [1, 10]: 4.71% | cytotoxicity at 0.25 µM [1, 11]: 4.35% | cytotoxicity at 0.25 µM [1, 12]: 0.58% | viability at 0.25 µM [1, 13]: 90.3% | viability at 48 h, 0.25 µM ([2]; B16F10 melanoma tumor cells): 77.6% | viability at 48 h, 0.05 uM ([2]; B16F10 melanoma tumor cells): 91.1%

N.N.[Cl][Pt][Cl] [Cis, cisplatin]
AnnV+DAPI+ (%) Mean ([1]; 10 uM, 48 hours): 2.76% | AnnV+DAPI− (%) Mean ([1]; 10 uM, 48 hours): 3.68% | AnnV−DAPI+ (%) Mean ([1]; 10 uM, 48 hours): 0.32% | AnnV−DAPI− (%) Mean ([1]; 10 uM, 48 hours): 93.25% | AnnV+DAPI+ (%) Mean ([1]; 50 uM, 48 hours): 18.75% | AnnV+DAPI− (%) Mean ([1]; 50 uM, 48 hours): 46.80% | AnnV−DAPI+ (%) Mean ([1]; 50 uM, 48 hours): 2.96% | AnnV−DAPI− (%) Mean ([1]; 50 uM, 48 hours): 31.55% | cell death by DAPI and Annexin V staining ([1]; 48 hours): caused varying extents of apoptotic and non-apoptotic cell death

CCc1c2c(nc3ccc(OC(=O)N4CCC(N5CCCCC5)CC4)cc13)-c1cc3c(c(=O)n1C2)COC(=O)[C@]3(O)CC [Iri, irinotecan]
cytotoxicity at 0.05 µM [1, 10]: 3.79% | cytotoxicity at 0.05 µM [1, 11]: 0.36% | cytotoxicity at 0.05 µM [1, 12]: 1.87% | viability at 0.05 µM [1, 13]: 94% | cytotoxicity at 0.25 µM [1, 10]: 5.06% | cytotoxicity at 0.25 µM [1, 11]: 0.54% | cytotoxicity at 0.25 µM [1, 12]: 1.63% | viability at 0.25 µM [1, 13]: 92.8% | cytotoxicity at 1 µM ([1]; Mus musculus, B16-F10, 1 uM, 48 hours, read-out: AnnV+DAPI+ (%) Mean): 6.38% | cytotoxicity at 1 µM ([1]; Mus musculus, B16-F10, 1 uM, 48 hours, read-out: AnnV+DAPI− (%) Mean): 1.74% | cytotoxicity at 1 µM ([1]; Mus musculus, B16-F10, 1 uM, 48 hours, read-out: AnnV−DAPI+ (%) Mean): 0.89% | viability at 1 µM ([1]; Mus musculus, B16-F10, 1 uM, 48 hours, read-out: AnnV−DAPI− (%) Mean): 91% | viability at 48 h, 0.25 µM ([2]; B16F10 melanoma tumor cells): 99.8% | viability at 48 h, 1 µM ([2]; B16F10 melanoma tumor cells, 1 uM): 97.9% | viability at 48 h, 0.05 uM ([2]; B16F10 melanoma tumor cells): 96.8% | growth arrest [3]: caused some degree of growth arrest

O=C1[O][Pt]2([NH][C@@H]3CCCC[C@H]3[NH]2)[O]C1=O [Oxal, oxaliplatin]
AnnV+DAPI+ (%) Mean ([1]; 10 uM, 48 hours): 1.73% | AnnV+DAPI− (%) Mean ([1]; 10 uM, 48 hours): 2.65% | AnnV−DAPI+ (%) Mean ([1]; 10 uM, 48 hours): 1.11% | AnnV−DAPI− (%) Mean ([1]; 10 uM, 48 hours): 94.50% | AnnV+DAPI+ (%) Mean ([1]; 50 uM, 48 hours): 4.25% | AnnV+DAPI− (%) Mean ([1]; 50 uM, 48 hours): 4.23% | AnnV−DAPI+ (%) Mean ([1]; 50 uM, 48 hours): 1.09% | AnnV−DAPI− (%) Mean ([1]; 50 uM, 48 hours): 90.45% | cell death by DAPI and Annexin V staining ([1]; 48 hours): did not induce substantial amounts of cell death | Cell viability (%) MEAN ([3]; 10 uM): 45.09% | Cell viability (%) MEAN ([3]; 50 uM): 44.21% | growth arrest [3]: caused some degree of growth arrest

Cc1ccc(-c2ccc3c(ccc4sc5c(c43)NC[C@@H](C)NC5=O)n2)cn1 [PF-3644022]
BMDC-mediated T-cell priming (B16-Ova cells; [4]): enhances BMDC-mediated T-cell priming

Oc1ccc(-c2nc(-c3ccncc3)c(-c3ccc(F)cc3)[nH]2)cc1 [SB202190]
reduction of T-cell IFN-γ responses / frequency of IFN-γ+ T-cells (B16-Ova cells; [4]): ~22% | reduction of T-cell IFN-γ responses / frequency of IFN-γ+ T-cells (B16-Ova cells; [5]): nearly abrogated

CN1C(=O)C(Cc2c[nH]c3ccccc23)NC1=S (stereo not shown) [necrostatin-1]
ability of drug-treated B16-Ova cells co-cultured with BMDCs to induce IFN-g in T-cells (B16-Ova cells; co-treatment with etoposide or mitoxantrone): inhibited the ability of both etoposide and mitoxantrone-treated B16-Ova cells

Z-VAD
reduction of T-cell IFN-γ responses / frequency of IFN-γ+ T-cells (B16-Ova cells; [4]): ~12% | reduction of T-cell IFN-γ responses / frequency of IFN-γ+ T-cells (B16-Ova cells; [5]): no effect
